Patent US8614236B2 (University of Washington, priority 2006, dated 2013)

How the values were obtained:
[1] = test system: unanesthetized dogs; experiment: Effect of inhaled acetazolamide in unanesthetized dogs during hypoxia (vs iv and oral); format: in vivo, dog
[2] = test system: humans; details: 250 mg tid; Balanos et al. abstract 2006; cited from earlier work
[3] = inhaled 750 mg after 1 h of normoxia, hypoxia 2nd h
[4] = inhaled 750 mg after 1 h of normoxia, hypoxia 3rd h
[5] = inhaled 750 mg after 1 h of normoxia, normoxia 1st h
[6] = iv 2 mg/kg bolus + 2 mg/kg/h, hypoxia 2nd h
[7] = iv 2 mg/kg bolus + 2 mg/kg/h, hypoxia 3rd h
[8] = iv 2 mg/kg bolus + 2 mg/kg/h, normoxia 1st h
[9] = oral 5 mg/kg -12 h and -1 h, hypoxia 2nd h
[10] = oral 5 mg/kg -12 h and -1 h, hypoxia 3rd h
[11] = oral 5 mg/kg -12 h and -1 h, normoxia 1st h

Q: For `CC(=O)Nc1nnc(S(N)(=O)=O)s1` [AZ, acetazolamide], which BEa [1, 3] is on record?
A: -5.2 ± 0.6 mM

Q: And the CO [1, 3]?
A: 2.3 ± 0.2 L/min

Q: And the CVP [1, 3]?
A: 2.5 ± 0.3 cmH2O

Q: And the GFR [1, 3]?
A: 3.7 ± 0.3 mL·min

Q: What about the HCO3a [1, 3] of the same compound?
A: 17.1 ± 0.6 mM

Q: And the HR [1, 3]?
A: 86 ± 6 beats/min

Q: What about the MAP [1, 3] of the same compound?
A: 105 ± 5 mmHg

Q: And the MPAP [1, 3]?
A: 15 ± 1 mmHg

Q: And the PCWP [1, 3]?
A: 3.9 ± 0.4 cmH2O

Q: And the PVR [1, 3]?
A: 395 ± 29 dyn s^−1 cm

Q: What about the PaCO2 [1, 3] of the same compound?
A: 26 ± 1 Torr

Q: And the PaO2 [1, 3]?
A: 39 ± 1 Torr

Q: And the UNaV [1, 3]?
A: 8.0 ± 1.3 µmol·min

Q: What about the UV [1, 3] of the same compound?
A: 99 ± 16 μ min^−1 kg^−1

Q: And the VE [1, 3]?
A: 5.5 ± 0.5 L/min

Q: What about the BEa [1, 4] of the same compound?
A: -5.7 ± 0.7 mM

Q: And the CO [1, 4]?
A: 2.5 ± 0.1 L/min

Q: What about the CVP [1, 4] of the same compound?
A: 2.1 ± 0.2 cmH2O

Q: And the GFR [1, 4]?
A: 3.6 ± 0.3 mL·min

Q: And the HCO3a [1, 4]?
A: 16.4 ± 0.5 mM

Q: What about the HR [1, 4] of the same compound?
A: 100 ± 8 beats/min

Q: What about the MAP [1, 4] of the same compound?
A: 105 ± 5 mmHg

Q: What about the MPAP [1, 4] of the same compound?
A: 15 ± 1 mmHg

Q: And the PCWP [1, 4]?
A: 3.6 ± 0.2 cmH2O

Q: What about the PVR [1, 4] of the same compound?
A: 388 ± 30 dyn s^−1 cm

Q: And the PaCO2 [1, 4]?
A: 25 ± 1 Torr

Q: What about the PaO2 [1, 4] of the same compound?
A: 36 ± 1 Torr

Q: And the UNaV [1, 4]?
A: 5.1 ± 0.7 µmol·min

Q: And the UV [1, 4]?
A: 81 ± 15 μ min^−1 kg^−1

Q: What about the VE [1, 4] of the same compound?
A: 5.7 ± 0.4 L/min

Q: What about the BEa [1, 5] of the same compound?
A: -3.9 ± 0.6 mM

Q: What about the CO [1, 5] of the same compound?
A: 2.5 ± 0.1 L/min

Q: And the CVP [1, 5]?
A: 2.8 ± 0.3 cmH2O

Q: And the GFR [1, 5]?
A: 4.0 ± 0.4 mL·min

Q: And the HCO3a [1, 5]?
A: 20.2 ± 0.5 mM

Q: What about the HR [1, 5] of the same compound?
A: 85 ± 5 beats/min

Q: And the MAP [1, 5]?
A: 92 ± 4 mmHg

Q: What about the MPAP [1, 5] of the same compound?
A: 13 ± 1 mmHg

Q: What about the PCWP [1, 5] of the same compound?
A: 4.3 ± 0.4 cmH2O

Q: What about the PVR [1, 5] of the same compound?
A: 298 ± 21 dyn s^−1 cm

Q: And the PaCO2 [1, 5]?
A: 36 ± 1 Torr

Q: And the PaO2 [1, 5]?
A: 101 ± 2 Torr

Q: And the UNaV [1, 5]?
A: 0.4 ± 0.1 µmol·min

Q: What about the UV [1, 5] of the same compound?
A: 33 ± 8 μ min^−1 kg^−1

Q: And the VE [1, 5]?
A: 3.2 ± 0.2 L/min

Q: What about the “pulmonary vascular response to hypoxia” value ([1]; inhaled, 12% oxygen for two hours) of the same compound?
A: successful in reducing

Q: And the BEa [1, 6]?
A: -4.6 ± 0.4 mM

Q: What about the CO [1, 6] of the same compound?
A: 3.0 ± 0.4 L/min

Q: And the CVP [1, 6]?
A: 2.2 ± 0.3 cmH2O

Q: And the GFR [1, 6]?
A: 3.4 ± 0.3 mL·min

Q: And the HCO3a [1, 6]?
A: 18.5 ± 0.5 mM

Q: And the HR [1, 6]?
A: 103 ± 6 beats/min

Q: And the MAP [1, 6]?
A: 102 ± 8 mmHg

Q: And the MPAP [1, 6]?
A: 15 ± 1 mmHg

Q: What about the PCWP [1, 6] of the same compound?
A: 3.5 ± 0.3 cmH2O

Q: What about the PVR [1, 6] of the same compound?
A: 312 ± 36 dyn s^−1 cm

Q: What about the PaCO2 [1, 6] of the same compound?
A: 30 ± 1 Torr

Q: And the PaO2 [1, 6]?
A: 37 ± 1 Torr

Q: What about the UNaV [1, 6] of the same compound?
A: 4.0 ± 0.6 µmol·min

Q: What about the UV [1, 6] of the same compound?
A: 135 ± 27 μ min^−1 kg^−1

Q: What about the VE [1, 6] of the same compound?
A: 6.5 ± 0.5 L/min

Q: And the BEa [1, 7]?
A: -6.1 ± 0.6 mM

Q: And the CO [1, 7]?
A: 2.9 ± 0.5 L/min

Q: What about the CVP [1, 7] of the same compound?
A: 2.3 ± 0.4 cmH2O

Q: What about the GFR [1, 7] of the same compound?
A: 3.8 ± 0.3 mL·min

Q: What about the HCO3a [1, 7] of the same compound?
A: 17.1 ± 0.5 mM

Q: And the HR [1, 7]?
A: 106 ± 7 beats/min

Q: What about the MAP [1, 7] of the same compound?
A: 103 ± 7 mmHg

Q: And the MPAP [1, 7]?
A: 14 ± 1 mmHg

Q: And the PCWP [1, 7]?
A: 3.7 ± 0.3 cmH2O

Q: What about the PVR [1, 7] of the same compound?
A: 305 ± 26 dyn s^−1 cm

Q: And the PaCO2 [1, 7]?
A: 27 ± 1 Torr

Q: And the PaO2 [1, 7]?
A: 38 ± 1 Torr

Q: And the UNaV [1, 7]?
A: 5.4 ± 1.2 µmol·min

Q: And the UV [1, 7]?
A: 68 ± 12 μ min^−1 kg^−1

Q: What about the VE [1, 7] of the same compound?
A: 6.9 ± 0.5 L/min

Q: What about the BEa [1, 8] of the same compound?
A: -4.0 ± 0.5 mM

Q: And the CO [1, 8]?
A: 2.6 ± 0.2 L/min

Q: What about the CVP [1, 8] of the same compound?
A: 1.8 ± 0.3 cmH2O

Q: And the GFR [1, 8]?
A: 3.5 ± 0.3 mL·min

Q: And the HCO3a [1, 8]?
A: 20.2 ± 0.4 mM

Q: What about the HR [1, 8] of the same compound?
A: 74 ± 4 beats/min

Q: What about the MAP [1, 8] of the same compound?
A: 95 ± 5 mmHg

Q: What about the MPAP [1, 8] of the same compound?
A: 13 ± 1 mmHg

Q: And the PCWP [1, 8]?
A: 3.8 ± 0.5 cmH2O

Q: And the PVR [1, 8]?
A: 283 ± 37 dyn s^−1 cm

Q: And the PaCO2 [1, 8]?
A: 34 ± 1 Torr

Q: What about the PaO2 [1, 8] of the same compound?
A: 107 ± 3 Torr

Q: What about the UNaV [1, 8] of the same compound?
A: 3.8 ± 0.6 µmol·min

Q: And the UV [1, 8]?
A: 102 ± 12 μ min^−1 kg^−1

Q: And the VE [1, 8]?
A: 4.1 ± 0.4 L/min

Q: And the BEa [1, 9]?
A: -6.3 ± 0.6 mM

Q: And the CO [1, 9]?
A: 2.7 ± 0.2 L/min

Q: And the CVP [1, 9]?
A: 1.9 ± 0.2 cmH2O

Q: What about the GFR [1, 9] of the same compound?
A: 3.3 ± 0.2 mL·min

Q: What about the HCO3a [1, 9] of the same compound?
A: 16.7 ± 0.6 mM

Q: What about the HR [1, 9] of the same compound?
A: 109 ± 5 beats/min

Q: What about the MAP [1, 9] of the same compound?
A: 106 ± 6 mmHg

Q: What about the MPAP [1, 9] of the same compound?
A: 17 ± 1 mmHg

Q: What about the PCWP [1, 9] of the same compound?
A: 3.5 ± 0.3 cmH2O

Q: And the PVR [1, 9]?
A: 375 ± 33 dyn s^−1 cm

Q: What about the PaCO2 [1, 9] of the same compound?
A: 28 ± 1 Torr

Q: And the PaO2 [1, 9]?
A: 37 ± 1 Torr

Q: And the UNaV [1, 9]?
A: 1.7 ± 0.5 µmol·min

Q: What about the UV [1, 9] of the same compound?
A: 84 ± 15 μ min^−1 kg^−1

Q: And the VE [1, 9]?
A: 6.6 ± 0.4 L/min

Q: What about the BEa [1, 10] of the same compound?
A: -6.4 ± 0.4 mM

Q: And the CO [1, 10]?
A: 2.3 ± 0.1 L/min

Q: What about the CVP [1, 10] of the same compound?
A: 1.9 ± 0.2 cmH2O

Q: What about the GFR [1, 10] of the same compound?
A: 3.3 ± 0.2 mL·min

Q: And the HCO3a [1, 10]?
A: 16.1 ± 0.4 mM

Q: And the HR [1, 10]?
A: 102 ± 7 beats/min

Q: What about the MAP [1, 10] of the same compound?
A: 107 ± 6 mmHg

Q: And the MPAP [1, 10]?
A: 17 ± 1 mmHg

Q: And the PCWP [1, 10]?
A: 3.5 ± 0.3 cmH2O

Q: What about the PVR [1, 10] of the same compound?
A: 431 ± 45 dyn s^−1 cm

Q: And the PaCO2 [1, 10]?
A: 26 ± 1 Torr

Q: And the PaO2 [1, 10]?
A: 37 ± 1 Torr

Q: And the UNaV [1, 10]?
A: 1.5 ± 0.4 µmol·min

Q: And the UV [1, 10]?
A: 55 ± 8 μ min^−1 kg^−1

Q: And the VE [1, 10]?
A: 6.3 ± 0.2 L/min

Q: And the BEa [1, 11]?
A: -6.5 ± 0.3 mM

Q: What about the CO [1, 11] of the same compound?
A: 2.3 ± 0.2 L/min

Q: What about the CVP [1, 11] of the same compound?
A: 2.3 ± 0.3 cmH2O

Q: And the GFR [1, 11]?
A: 3.0 ± 0.2 mL·min

Q: What about the HCO3a [1, 11] of the same compound?
A: 17.6 ± 0.3 mM

Q: And the HR [1, 11]?
A: 85 ± 3 beats/min

Q: And the MAP [1, 11]?
A: 95 ± 3 mmHg

Q: And the MPAP [1, 11]?
A: 12 ± 1 mmHg

Q: And the PCWP [1, 11]?
A: 3.9 ± 0.3 cmH2O

Q: What about the PVR [1, 11] of the same compound?
A: 298 ± 27 dyn s^−1 cm

Q: What about the PaCO2 [1, 11] of the same compound?
A: 32 ± 1 Torr

Q: And the PaO2 [1, 11]?
A: 108 ± 2 Torr

Q: What about the UNaV [1, 11] of the same compound?
A: 1.4 ± 0.6 µmol·min

Q: What about the UV [1, 11] of the same compound?
A: 50 ± 9 μ min^−1 kg^−1

Q: What about the VE [1, 11] of the same compound?
A: 4.6 ± 0.3 L/min

Q: And the “reduction of HPV in humans” value [2]?
A: 50%
